# Results reported in patent publication US4304781A, “Treatment of ulcers and hypertension” (John Wyeth & Brother Limited, priority 1978, dated 1981).
# System: stress-induced erosion
# Assay: Stress-induced erosion test (Senay & Levine), anti-ulcer activity
# Type: in vivo
# Conditions: 10 mg/kg
# Description: (§1) Anti-ulcer activity was determined by the stress-induced erosion test of Senay & Levine, Proc. Soc. Exp. Biol. Med., 124, 1221-1223 (1967) and anti-secretory activity by the test of H. Shay, D. Sun and H. Greenstin, Gastroenterology, 1954, 26, 903-913 as exemplified by Beattie et al J. Med. Chem., 20, 714 (1977). […] However, some compounds show activity in tests for anti-hypertensive activity.
row,Structure (SMILES),inhibition in vivo at 10 mg/kg [%]
1,"C[n+]1ccccc1SCC1CCCCC1 [Example 12, 2-(Cyclohexylmethylthio)-1-methylpyridinium bromide]",64

# Same assay, conditions: 30 mg/kg
row,Structure (SMILES),inhibition in vivo at 30 mg/kg [%]
1,"C[n+]1ccccc1SCCc1ccccc1 [Example 2, 1-Methyl-2-(2-phenylethylthio) pyridinium bromide]",83
2,"C[n+]1ccccc1SCC1CCCCC1 [Example 12, 2-(Cyclohexylmethylthio)-1-methylpyridinium bromide]",67
3,"CC(C)c1ccc(CSc2cccc[n+]2C)cc1 [Example 18, 2-((-4-Isopropylbenzyl)thio)-1-methylpyridinium chloride]",60
4,"C[n+]1ccc(SCc2ccccc2)cc1 [Example 23, 4-Benzylthio-1-methylpyridinium bromide]",70
5,"C[n+]1ccc(SCc2cccc(Cl)c2)cc1 [Example 24, 4-((3-Chlorobenzyl)thio)-1-methylpyridinium chloride]",60
6,"Cc1cccc(CSc2cccc[n+]2C)c1 [Example 25, 1-Methyl-2-((3-methylbenzyl)thio)pyridinium chloride]",75

# Same assay, conditions: 100 mg/kg
row,Structure (SMILES),inhibition in vivo at 100 mg/kg [%]
1,"C[n+]1ccccc1SCCc1ccccc1 [Example 2, 1-Methyl-2-(2-phenylethylthio) pyridinium bromide]",67
2,"C[n+]1ccccc1SCc1ccc(Cl)cc1 [Example 3, 2-(4-Chlorobenzylthio)-1-methylpyridinium chloride]",83
3,"C[n+]1ccccc1SCc1ccc(Cl)c(Cl)c1 [Example 4, 2-(3,4-Dichlorobenzylthio)-1-methylpyridinium chloride]",67
4,"C[n+]1ccccc1SCc1c(Cl)cccc1Cl [Example 5, 2-(2,6-Dichlorobenzylthio)-1-methylpyridinium chloride]",70
5,"C[n+]1ccccc1SCc1cccc(Cl)c1 [Example 11, 1-Methyl-2-(3-chlorobenzylthio(pyridinium chloride]",62
6,"C[n+]1ccccc1SCC1CCCCC1 [Example 12, 2-(Cyclohexylmethylthio)-1-methylpyridinium bromide]",87
7,"C[n+]1ccccc1SCC(=O)c1ccccc1 [Example 15, 1-Methyl-2-phenacylthiopyridinium bromide]",100
8,"C[n+]1ccccc1SCc1cccc(Br)c1 [Example 17, 2-(3-Bromobenzylthio)-1-methylpyridinium bromide]",64
9,"CC(C)c1ccc(CSc2cccc[n+]2C)cc1 [Example 18, 2-((-4-Isopropylbenzyl)thio)-1-methylpyridinium chloride]",71
10,"C[n+]1ccc(SCc2ccccc2)cc1 [Example 23, 4-Benzylthio-1-methylpyridinium bromide]",80
11,"C[n+]1ccc(SCc2cccc(Cl)c2)cc1 [Example 24, 4-((3-Chlorobenzyl)thio)-1-methylpyridinium chloride]",23
12,"Cc1cccc(CSc2cccc[n+]2C)c1 [Example 25, 1-Methyl-2-((3-methylbenzyl)thio)pyridinium chloride]",80
13,"C[n+]1cccc(C=O)c1SCc1ccccc1 [Example 29, 2-Benzylthio-3-formyl-1-methylpyridinium bromide]",71
14,"OCc1ccc[n+](-c2ccccc2)c1SCc1ccccc1 [Example 30, 2-Benzylthio-3-hydroxymethyl-1-phenylpyridinium bromide]",71
15,"Clc1cccc(CSc2ccncc2)c1 [Example 31, 4((3-Chloro)benzylthio)pyridine]",62
16,"C[n+]1ccccc1SCc1cccc([N+](=O)[O-])c1 [Example 32, 1-Methyl-2-((3-nitro)benzylthio)pyridinium chloride]",73
17,"Cc1ccccc1CSc1cccc[n+]1C [Example 33, 1-Methyl-2-((2-methyl)benzylthio)pyridinium bromide]",73
18,"c1ccc(CSc2ccncc2)cc1 [Example 34, 4-Benzylmercaptopyridine]",64
19,"C[n+]1ccccc1SCc1cccc(I)c1 [Example 35, 2-((3-Iodobenzyl)thio)-1-methylpyridinium chloride]",67
20,"COc1cccc(CSc2cccc[n+]2C)c1 [Example 36, 2-((3-Methoxybenzyl)thio)-1-methylpryridinum chloride]",69
21,"C[n+]1ccccc1SCCCCc1ccccc1 [Example 40, 1-Methyl-2-((4-phenylbutyl)thio)pyridinium bromide]",67
22,"O=[N+]([O-])c1ccc(C[n+]2ccccc2SCc2ccccc2)cc1 [Example 41, 1-(4-Nitrobenzyl)-2-(benzylthio)-pyridinium bromide]",69

# System: Female rats rendered hypertensive
# Assay: Antihypertensive activity, Procedure B: deoxycorticosterone acetate hypertensive rats (unilateral nephrectomy)
# Type: in vivo
# Conditions: 50 mg/kg orally
# Description: Female rats are rendered hypertensive by unilateral nephrectomy and the s.c. implantation of a pellet containing 30 mg of deoxycorticosterone acetate. The drinking water is replaced by normal saline ad lib for the first four weeks following preparation. Blood pressures stabilise at a hypertensive level after 6 weeks. Systolic pressure is measured indirectly before dosing with a test compound using an E and M pneumatic pulse transducer and a Devices MX2 recorder. Groups of 4 rats are dosed orally with suspensions or solutions of the test compound in 0.5% hydroxypropyl-methyl-cellulose 0.9% saline vehicle. Blood pressures are recorded again at 2, 6 and 24 hours and the results, expressed as a percentage of the pre-dose values compared with those of a similar group of rats receiving vehicle alone.
row,Structure (SMILES),Antihypertensive activity (Procedure B)
1,"C[n+]1ccccc1SCc1cccc(Cl)c1 [Example 11, 1-Methyl-2-(3-chlorobenzylthio(pyridinium chloride]",inactive
2,"C[n+]1ccccc1SCC1CCCCC1 [Example 12, 2-(Cyclohexylmethylthio)-1-methylpyridinium bromide]",inactive

# System: hypersecretion
# Assay: Anti-secretory activity test (Shay et al)
# Type: in vivo
# Set-up: key to Anti-secretory, % change in Vol.: NS: Not Significant
# Conditions: 10 mg/kg; read-out: Anti-secretory, % change in Vol.
# Description: as §1
row,Structure (SMILES),change in vivo at 10 mg/kg [%]
1,"C[n+]1ccccc1SCCc1ccccc1 [Example 2, 1-Methyl-2-(2-phenylethylthio) pyridinium bromide]",-20
2,"C[n+]1ccccc1SCc1c(Cl)cccc1Cl [Example 5, 2-(2,6-Dichlorobenzylthio)-1-methylpyridinium chloride]",-35
3,"C[n+]1ccccc1SCc1cccc(Cl)c1 [Example 11, 1-Methyl-2-(3-chlorobenzylthio(pyridinium chloride]",-42

# Same assay, conditions: 30 mg/kg
row,Structure (SMILES),"Anti-secretory, % change in Vol."
1,"C[n+]1ccccc1SCC1CCCCC1 [Example 12, 2-(Cyclohexylmethylthio)-1-methylpyridinium bromide]",NS
2,"C[n+]1ccccc1SCC(=O)c1ccccc1 [Example 15, 1-Methyl-2-phenacylthiopyridinium bromide]",NS
3,"C[n+]1ccc(SCc2ccccc2)cc1 [Example 23, 4-Benzylthio-1-methylpyridinium bromide]",NS
4,"C[n+]1ccccc1SCc1cccc([N+](=O)[O-])c1 [Example 32, 1-Methyl-2-((3-nitro)benzylthio)pyridinium chloride]",NS
5,"Cc1ccccc1CSc1cccc[n+]1C [Example 33, 1-Methyl-2-((2-methyl)benzylthio)pyridinium bromide]",NS
6,"c1ccc(CSc2ccncc2)cc1 [Example 34, 4-Benzylmercaptopyridine]",NS
7,"COc1cccc(CSc2cccc[n+]2C)c1 [Example 36, 2-((3-Methoxybenzyl)thio)-1-methylpryridinum chloride]",NS
8,"C[n+]1ccccc1SCc1cccc(C(F)(F)F)c1 [Example 37, 1-Methyl-2-((3-trifluoromethylbenzyl)thio)pyridinium chloride]",NS
9,"C[n+]1ccccc1SC(c1ccccc1)c1ccccc1 [Example 39, 2-((Diphenylmethyl)thio)-1-methyloyridinium bromide]",NS
10,"O=[N+]([O-])c1ccc(C[n+]2ccccc2SCc2ccccc2)cc1 [Example 41, 1-(4-Nitrobenzyl)-2-(benzylthio)-pyridinium bromide]",NS

# Same assay, conditions: 30 mg/kg; read-out: Anti-secretory, % change in Vol.
row,Structure (SMILES),change in vivo at 30 mg/kg [%]
1,"C[n+]1ccccc1SCCc1ccccc1 [Example 2, 1-Methyl-2-(2-phenylethylthio) pyridinium bromide]",-56
2,"C[n+]1ccccc1SCc1ccc(Cl)cc1 [Example 3, 2-(4-Chlorobenzylthio)-1-methylpyridinium chloride]",-77
3,"C[n+]1ccccc1SCc1ccc(Cl)c(Cl)c1 [Example 4, 2-(3,4-Dichlorobenzylthio)-1-methylpyridinium chloride]",-45
4,"C[n+]1ccccc1SCc1c(Cl)cccc1Cl [Example 5, 2-(2,6-Dichlorobenzylthio)-1-methylpyridinium chloride]",-65
5,"C[n+]1ccccc1SCc1cccc(Cl)c1 [Example 11, 1-Methyl-2-(3-chlorobenzylthio(pyridinium chloride]",-70
6,"C[n+]1ccccc1SCc1cccc(Br)c1 [Example 17, 2-(3-Bromobenzylthio)-1-methylpyridinium bromide]",-52
7,"CC(C)c1ccc(CSc2cccc[n+]2C)cc1 [Example 18, 2-((-4-Isopropylbenzyl)thio)-1-methylpyridinium chloride]",-39
8,"C[n+]1ccc(SCc2cccc(Cl)c2)cc1 [Example 24, 4-((3-Chlorobenzyl)thio)-1-methylpyridinium chloride]",-40
9,"Cc1cccc(CSc2cccc[n+]2C)c1 [Example 25, 1-Methyl-2-((3-methylbenzyl)thio)pyridinium chloride]",-69
10,"C[n+]1cccc(C=O)c1SCc1ccccc1 [Example 29, 2-Benzylthio-3-formyl-1-methylpyridinium bromide]",-48
11,"OCc1ccc[n+](-c2ccccc2)c1SCc1ccccc1 [Example 30, 2-Benzylthio-3-hydroxymethyl-1-phenylpyridinium bromide]",-42
12,"Clc1cccc(CSc2ccncc2)c1 [Example 31, 4((3-Chloro)benzylthio)pyridine]",-34
13,"C[n+]1ccccc1SCc1cccc(I)c1 [Example 35, 2-((3-Iodobenzyl)thio)-1-methylpyridinium chloride]",-41
14,"C[n+]1ccccc1SCCCCc1ccccc1 [Example 40, 1-Methyl-2-((4-phenylbutyl)thio)pyridinium bromide]",-36

# System: male spontaneously hypertensive rats
# Assay: Antihypertensive activity, Procedure A: systolic pressure of spontaneously hypertensive rats
# Type: in vivo
# Conditions: 50 mg/kg orally
# Description: Systolic pressure of male spontaneously hypertensive rats is measured by an indirect technique using the Decker Caudal Plethysmograph or other appropriate sensor. Groups usually consist of 4 rats. Drugs are usually administered orally. Pressures are usually read prior to drug administration and at 1.5, 4 and 24 hours thereafter. This schedule may be altered depending upon the behaviour of the drug.
row,Structure (SMILES),Antihypertensive activity (Procedure A)
1,"C[n+]1ccccc1SCc1cccc(Br)c1 [Example 17, 2-(3-Bromobenzylthio)-1-methylpyridinium bromide]",inactive
2,"CC(C)c1ccc(CSc2cccc[n+]2C)cc1 [Example 18, 2-((-4-Isopropylbenzyl)thio)-1-methylpyridinium chloride]",inactive
3,"C[n+]1ccccc1SCc1cccc(C(F)(F)F)c1 [Example 37, 1-Methyl-2-((3-trifluoromethylbenzyl)thio)pyridinium chloride]",showed activity
4,"C[n+]1ccccc1SC(c1ccccc1)c1ccccc1 [Example 39, 2-((Diphenylmethyl)thio)-1-methyloyridinium bromide]",showed activity

# Same assay, conditions: 75 mg/kg orally
row,Structure (SMILES),Antihypertensive activity (Procedure A)
1,"C[n+]1ccccc1SCCc1ccccc1 [Example 2, 1-Methyl-2-(2-phenylethylthio) pyridinium bromide]",showed activity
2,"C[n+]1ccccc1SCc1ccc(Cl)cc1 [Example 3, 2-(4-Chlorobenzylthio)-1-methylpyridinium chloride]",inactive
3,"C[n+]1ccccc1SCc1ccc(Cl)c(Cl)c1 [Example 4, 2-(3,4-Dichlorobenzylthio)-1-methylpyridinium chloride]",showed activity
4,"C[n+]1ccccc1SCc1c(Cl)cccc1Cl [Example 5, 2-(2,6-Dichlorobenzylthio)-1-methylpyridinium chloride]",showed activity
5,"C[n+]1ccccc1SCC(=O)c1ccccc1 [Example 15, 1-Methyl-2-phenacylthiopyridinium bromide]",showed activity
